Measured values: patent US20220187282A1, “CARDIOMYOCYTE PROLIFERATION” (The Council of the Queensland Institute of Medical Research, priority 2019, published 2022)
Where two headings read alike, the source gives them in different places.

How the values were obtained:
Type in all cases: biochemical
kinases [1] = target: kinases (Homo sapiens, UniProt P29597); details: TYK2 FRET-Z-Lyte SP; Test Conc(μM):ATP Conc(μM) 1:25
kinases [2] = target: kinases (Homo sapiens, UniProt Q8IWQ3); details: BRSK2 FRET-Lantha SP; Test Conc(μM) 1
kinases [3] = target: kinases (Homo sapiens, UniProt P07949); details: RET Hu Phos FRET-Z-Lyte SP; Test Conc(μM):ATP Conc(μM) 1:10
kinases [4] = target: kinases (Homo sapiens, UniProt P42336)
Sequence of kinases (Homo sapiens, UniProt P42336) (P42336 whole entry): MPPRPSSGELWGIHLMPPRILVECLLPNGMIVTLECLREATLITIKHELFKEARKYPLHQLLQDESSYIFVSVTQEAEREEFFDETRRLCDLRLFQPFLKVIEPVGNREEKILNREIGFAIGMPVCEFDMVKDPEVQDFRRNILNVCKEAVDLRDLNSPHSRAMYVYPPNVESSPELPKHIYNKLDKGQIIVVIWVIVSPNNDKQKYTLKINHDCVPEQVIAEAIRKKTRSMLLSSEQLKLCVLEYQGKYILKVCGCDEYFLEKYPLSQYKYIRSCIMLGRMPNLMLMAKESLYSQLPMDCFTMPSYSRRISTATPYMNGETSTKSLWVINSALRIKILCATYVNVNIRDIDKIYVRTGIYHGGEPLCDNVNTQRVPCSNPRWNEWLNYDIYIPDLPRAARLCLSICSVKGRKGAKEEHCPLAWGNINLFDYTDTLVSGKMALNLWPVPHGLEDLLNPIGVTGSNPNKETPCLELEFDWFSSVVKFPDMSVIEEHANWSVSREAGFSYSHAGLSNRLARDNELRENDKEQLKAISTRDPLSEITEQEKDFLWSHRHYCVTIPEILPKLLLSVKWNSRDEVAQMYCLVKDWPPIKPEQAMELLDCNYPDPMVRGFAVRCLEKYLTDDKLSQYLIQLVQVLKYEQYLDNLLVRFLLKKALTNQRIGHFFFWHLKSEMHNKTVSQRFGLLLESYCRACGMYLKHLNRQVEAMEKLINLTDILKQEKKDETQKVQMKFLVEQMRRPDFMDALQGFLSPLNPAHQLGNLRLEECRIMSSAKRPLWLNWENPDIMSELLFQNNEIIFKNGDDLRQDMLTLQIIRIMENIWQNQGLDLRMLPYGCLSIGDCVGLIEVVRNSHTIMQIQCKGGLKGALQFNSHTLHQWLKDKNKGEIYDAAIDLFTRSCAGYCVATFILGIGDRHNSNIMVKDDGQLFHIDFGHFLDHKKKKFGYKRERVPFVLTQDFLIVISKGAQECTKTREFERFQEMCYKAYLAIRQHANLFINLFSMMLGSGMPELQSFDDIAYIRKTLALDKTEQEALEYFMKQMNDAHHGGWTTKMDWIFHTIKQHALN

kinases [5] = target: kinases (Homo sapiens, UniProt Q99558); details: MAP3K14 (NIK) FRET-Lantha SP; Test Conc(μM) 1
kinases [6] = target: kinases (Homo sapiens, UniProt P06213); details: INSR *Mn* FRET-Z-Lyte SP; Test Conc(μM):ATP Conc(μM) 1:25
kinases [7] = target: kinases (Homo sapiens, UniProt P57059); details: SIK1 FRET-Lantha SP; Test Conc(μM) 1
kinases [8] = target: kinases (Homo sapiens, UniProt P37023); details: ACVRL1 (ALK1) FRET-Lantha SP; Test Conc(μM) 1
Sequence of kinases (Homo sapiens, UniProt P37023) (P37023 22-503): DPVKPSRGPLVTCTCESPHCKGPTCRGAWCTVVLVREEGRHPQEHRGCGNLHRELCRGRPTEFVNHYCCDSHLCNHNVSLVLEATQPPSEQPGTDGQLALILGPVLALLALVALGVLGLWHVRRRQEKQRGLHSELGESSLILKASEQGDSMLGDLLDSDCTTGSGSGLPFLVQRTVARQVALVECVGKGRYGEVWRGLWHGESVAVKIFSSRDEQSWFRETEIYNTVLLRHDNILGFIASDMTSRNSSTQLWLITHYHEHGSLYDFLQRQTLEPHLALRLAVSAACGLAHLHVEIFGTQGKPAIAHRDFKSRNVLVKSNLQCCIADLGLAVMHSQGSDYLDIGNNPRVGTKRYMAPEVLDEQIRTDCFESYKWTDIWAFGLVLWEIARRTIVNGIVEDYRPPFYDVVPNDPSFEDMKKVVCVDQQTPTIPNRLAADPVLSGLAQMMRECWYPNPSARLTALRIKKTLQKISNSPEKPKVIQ

kinases [9] = target: kinases (Homo sapiens, UniProt P49761); details: CLK3 FRET-Z-Lyte SP; Test Conc(μM):ATP Conc(μM) 1:150
kinases [10] = target: kinases (Homo sapiens, UniProt P49760); details: CLK2 FRET-Z-Lyte SP; Test Conc(μM):ATP Conc(μM) 1:25
kinases [11] = target: kinases (Homo sapiens, UniProt P11802); details: Test Conc(μM):ATP Conc(μM) 1:10
Sequence of kinases (Homo sapiens, UniProt P11802) (P11802 whole entry): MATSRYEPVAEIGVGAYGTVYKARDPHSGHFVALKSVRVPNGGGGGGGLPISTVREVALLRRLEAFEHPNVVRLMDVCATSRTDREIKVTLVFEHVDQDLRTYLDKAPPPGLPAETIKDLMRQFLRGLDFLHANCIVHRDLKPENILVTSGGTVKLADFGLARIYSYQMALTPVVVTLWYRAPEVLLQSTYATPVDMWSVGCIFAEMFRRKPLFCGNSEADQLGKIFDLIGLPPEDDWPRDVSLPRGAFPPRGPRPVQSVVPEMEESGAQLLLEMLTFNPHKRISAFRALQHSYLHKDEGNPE

kinases [12] = target: kinases (Homo sapiens, UniProt P53667); details: LIMK1 FRET-Lantha SP; Test Conc(μM) 1
kinases [13] = target: kinases (Homo sapiens, UniProt Q86UE8); details: TLK2 FRET-Lantha SP; Test Conc(μM) 1
kinases [14] = target: kinases (Homo sapiens, UniProt Q9UHD2); details: TBK1 FRET-Z-Lyte SP; Test Conc(μM):ATP Conc(μM) 1:25
kinases [15] = target: kinases (Homo sapiens, UniProt O75716); details: STK16 (PKL12) FRET-Lantha SP; Test Conc(μM) 1
Sequence of kinases (Homo sapiens, UniProt O75716) (O75716 whole entry): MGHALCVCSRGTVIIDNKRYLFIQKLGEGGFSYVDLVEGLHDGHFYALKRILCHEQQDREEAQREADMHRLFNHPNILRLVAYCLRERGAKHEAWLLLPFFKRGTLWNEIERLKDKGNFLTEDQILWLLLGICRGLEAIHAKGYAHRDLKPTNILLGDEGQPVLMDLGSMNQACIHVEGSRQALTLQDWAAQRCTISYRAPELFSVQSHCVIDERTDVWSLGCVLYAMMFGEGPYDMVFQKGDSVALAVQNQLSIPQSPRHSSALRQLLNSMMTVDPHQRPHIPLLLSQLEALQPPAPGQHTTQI

kinases [16] = target: kinases (Homo sapiens, UniProt Q8TD08); details: MAPK15 (ERK7) FRET-Lantha SP; Test Conc(μM) 1
kinases [17] = target: kinases (Homo sapiens, UniProt Q8IY84); details: NIM1K FRET-Z-Lyte SP; Test Conc(μM):ATP Conc(μM) 1:10
Sequence of kinases (Homo sapiens, UniProt Q8IY84) (Q8IY84 whole entry): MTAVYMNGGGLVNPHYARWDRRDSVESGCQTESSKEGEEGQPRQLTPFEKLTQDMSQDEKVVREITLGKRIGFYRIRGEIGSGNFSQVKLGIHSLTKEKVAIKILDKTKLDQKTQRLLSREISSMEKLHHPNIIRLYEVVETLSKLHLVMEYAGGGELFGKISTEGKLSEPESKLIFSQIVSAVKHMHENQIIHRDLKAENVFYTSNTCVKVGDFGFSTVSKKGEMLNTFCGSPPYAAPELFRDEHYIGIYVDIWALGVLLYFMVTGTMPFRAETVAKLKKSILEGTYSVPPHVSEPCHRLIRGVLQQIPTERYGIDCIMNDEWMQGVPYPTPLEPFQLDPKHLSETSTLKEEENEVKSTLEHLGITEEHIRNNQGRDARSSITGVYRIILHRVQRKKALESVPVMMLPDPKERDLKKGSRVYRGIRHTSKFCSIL

kinases [18] = target: kinases (Homo sapiens, UniProt Q04759); details: PRKCQ (PKC theta) Z-Lyte SP; Test Conc(μM):ATP Conc(μM) 1:100
kinases [19] = target: kinases (Homo sapiens, UniProt Q02779); details: MAP3K10 (MLK2) FRET-Lantha SP; Test Conc(μM) 1
kinases [20] = target: kinases (Homo sapiens, UniProt Q16832); details: DDR2 Hu Bind FRET-Lantha SP; Test Conc(μM) 1
kinases [21] = target: kinases (Homo sapiens, UniProt P41240); details: CSK FRET-Z-Lyte SP; Test Conc(μM):ATP Conc(μM) 1:10
kinases [22] = target: kinases (Homo sapiens, UniProt P49759); details: CLK1 FRET-Z-Lyte SP; Test Conc(μM):ATP Conc(μM) 1:25
kinases [23] = target: kinases (Homo sapiens, UniProt Q8WTQ7); details: GRK7 FRET-Z-Lyte SP; Test Conc(μM):ATP Conc(μM) 1:10
Sequence of kinases (Homo sapiens, UniProt Q8WTQ7) (Q8WTQ7 whole entry): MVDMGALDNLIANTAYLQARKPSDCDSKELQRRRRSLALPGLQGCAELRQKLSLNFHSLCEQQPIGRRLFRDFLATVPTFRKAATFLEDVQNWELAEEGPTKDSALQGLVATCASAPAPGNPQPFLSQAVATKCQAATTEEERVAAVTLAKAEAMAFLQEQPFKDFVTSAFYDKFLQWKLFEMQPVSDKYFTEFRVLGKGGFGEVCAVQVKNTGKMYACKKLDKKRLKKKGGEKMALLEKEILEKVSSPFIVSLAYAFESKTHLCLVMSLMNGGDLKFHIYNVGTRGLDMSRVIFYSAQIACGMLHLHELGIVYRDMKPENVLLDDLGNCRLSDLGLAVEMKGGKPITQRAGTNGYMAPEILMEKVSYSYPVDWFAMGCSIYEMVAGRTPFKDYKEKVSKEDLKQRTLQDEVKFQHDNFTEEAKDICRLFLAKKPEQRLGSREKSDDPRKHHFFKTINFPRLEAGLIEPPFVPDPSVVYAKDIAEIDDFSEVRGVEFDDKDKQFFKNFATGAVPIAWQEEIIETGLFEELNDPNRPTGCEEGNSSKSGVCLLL

kinases [24] = target: kinases (Homo sapiens, UniProt P11362); details: FGFR1 *Mn* FRET-Z-Lyte SP; Test Conc(μM):ATP Conc(μM) 1:25
kinases [25] = target: kinases (Homo sapiens, UniProt Q96PY6); details: NEK1 FRET-Z-Lyte SP; ATP Conc(μM):Test Conc(μM) 1:100
Sequence of kinases (Homo sapiens, UniProt Q96PY6) (Q96PY6 whole entry): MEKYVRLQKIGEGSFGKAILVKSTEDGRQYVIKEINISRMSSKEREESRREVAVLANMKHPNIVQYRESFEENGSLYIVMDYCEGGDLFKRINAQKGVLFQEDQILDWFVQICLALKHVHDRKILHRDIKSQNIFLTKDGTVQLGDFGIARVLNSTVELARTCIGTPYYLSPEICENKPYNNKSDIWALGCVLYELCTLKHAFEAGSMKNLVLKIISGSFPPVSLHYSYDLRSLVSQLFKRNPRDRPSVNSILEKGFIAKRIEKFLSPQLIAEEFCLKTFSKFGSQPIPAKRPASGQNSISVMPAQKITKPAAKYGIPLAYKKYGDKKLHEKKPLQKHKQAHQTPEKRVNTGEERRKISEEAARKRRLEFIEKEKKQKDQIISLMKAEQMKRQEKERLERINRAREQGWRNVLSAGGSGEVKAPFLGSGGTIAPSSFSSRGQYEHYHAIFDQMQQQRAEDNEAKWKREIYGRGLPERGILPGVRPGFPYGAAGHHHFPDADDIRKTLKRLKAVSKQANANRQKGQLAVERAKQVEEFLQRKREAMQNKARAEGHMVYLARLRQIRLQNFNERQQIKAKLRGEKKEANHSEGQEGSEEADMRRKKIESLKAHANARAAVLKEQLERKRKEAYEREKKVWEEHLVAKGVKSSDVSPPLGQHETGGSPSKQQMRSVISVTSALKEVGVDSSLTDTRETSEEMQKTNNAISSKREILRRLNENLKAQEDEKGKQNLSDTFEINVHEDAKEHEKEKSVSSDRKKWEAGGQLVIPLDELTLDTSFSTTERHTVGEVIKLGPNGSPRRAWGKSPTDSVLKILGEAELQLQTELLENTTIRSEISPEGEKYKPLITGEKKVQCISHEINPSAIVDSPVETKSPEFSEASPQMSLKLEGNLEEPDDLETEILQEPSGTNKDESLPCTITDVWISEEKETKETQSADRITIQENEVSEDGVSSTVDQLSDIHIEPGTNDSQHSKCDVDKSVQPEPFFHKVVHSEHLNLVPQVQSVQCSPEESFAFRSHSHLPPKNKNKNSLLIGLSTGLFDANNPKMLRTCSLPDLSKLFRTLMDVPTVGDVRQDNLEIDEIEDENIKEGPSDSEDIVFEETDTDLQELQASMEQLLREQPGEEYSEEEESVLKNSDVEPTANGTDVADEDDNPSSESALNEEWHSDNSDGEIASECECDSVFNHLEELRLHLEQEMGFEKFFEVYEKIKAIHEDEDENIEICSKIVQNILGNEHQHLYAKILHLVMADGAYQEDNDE

kinases [26] = target: kinases (Homo sapiens, UniProt P07948); details: LYN A Hu Phos FRET-Z-Lyte SP; Test Conc(μM):ATP Conc(μM) 1:25
kinases [27] = target: kinases (Homo sapiens, UniProt Q9Y616); details: IRAK3 FRET-Lantha SP; Test Conc(μM) 1
Sequence of kinases (Homo sapiens, UniProt Q9Y616) (Q9Y616 whole entry): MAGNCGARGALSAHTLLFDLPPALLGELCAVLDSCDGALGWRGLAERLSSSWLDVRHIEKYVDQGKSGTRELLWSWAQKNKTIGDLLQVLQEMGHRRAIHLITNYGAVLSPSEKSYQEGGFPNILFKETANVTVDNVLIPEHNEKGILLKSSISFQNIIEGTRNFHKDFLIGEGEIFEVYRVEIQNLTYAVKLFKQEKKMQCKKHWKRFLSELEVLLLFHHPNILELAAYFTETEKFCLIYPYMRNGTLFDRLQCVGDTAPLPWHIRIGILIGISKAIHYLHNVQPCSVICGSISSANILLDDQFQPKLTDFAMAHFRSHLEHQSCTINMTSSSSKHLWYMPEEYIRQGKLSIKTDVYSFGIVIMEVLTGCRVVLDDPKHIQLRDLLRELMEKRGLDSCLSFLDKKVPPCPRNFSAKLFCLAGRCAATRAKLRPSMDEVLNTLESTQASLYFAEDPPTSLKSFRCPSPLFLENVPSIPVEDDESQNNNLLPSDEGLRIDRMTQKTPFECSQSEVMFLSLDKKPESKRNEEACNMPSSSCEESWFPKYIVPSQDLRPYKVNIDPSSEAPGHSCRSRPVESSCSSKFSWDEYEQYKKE

kinases [28] = target: kinases (Homo sapiens, UniProt Q96RR4); details: CAMKK2 (Beta) FRET-Lantha SP; Test Conc(μM) 1
kinases [29] = target: kinases (Homo sapiens, UniProt P49137); details: MAPKAPK2 FRET-Z-Lyte SP; Test Conc(μM):ATP Conc(μM) 1:5
[30] = PIK3CA/PIK3R1 FRET-Adapta SP, Test Conc(μM):ATP Conc(μM) 1:25
[31] = PIK3CA/PIK3R3 FRET-Adapta SP, Test Conc(μM):ATP Conc(μM) 1:10

Cc1ccc(NC(=O)c2ccnc(N3CCOCC3)c2)cc1Nc1ccnc(N2CC(C)OC(C)C2)n1 (centres unmarked) [compound 3]
Mean Inhib (%) (kinases [1]): 6.0%
Mean Inhib (%) (kinases [2]): 3.2%
Mean Inhib (%) (kinases [3]): 22.8%
Mean Inhib (%) (kinases [4]; [30]): 8.4%
Mean Inhib (%) (kinases [4]; [31]): −3.0%
Mean Inhib (%) (kinases [5]): −1.3%
Mean Inhib (%) (kinases [6]): 2.1%
Mean Inhib (%) (kinases [7]): −0.5%
Mean Inhib (%) (kinases [8]): 7.2%
Mean Inhib (%) (kinases [9]): 2.0%
Mean Inhib (%) (kinases [10]): 3.7%
Mean Inhib (%) (kinases [11]; CDK4 Cyclin D1 *Mn* Adapta SP): 7.8%
Mean Inhib (%) (kinases [11]; CDK4 Cyclin D3 *Mn* Adapta SP): 5.0%
Mean Inhib (%) (kinases [12]): 2.2%
Mean Inhib (%) (kinases [13]): −2.9%
Mean Inhib (%) (kinases [14]): −0.8%
Mean Inhib (%) (kinases [15]): −1.7%
Mean Inhib (%) (kinases [16]): 0.8%
Mean Inhib (%) (kinases [17]): −0.9%
Mean Inhib (%) (kinases [18]): 15.6%
Mean Inhib (%) (kinases [19]): 0.6%
Mean Inhib (%) (kinases [20]): 65.5%
Mean Inhib (%) (kinases [21]): 10.1%
Mean Inhib (%) (kinases [22]): 5.3%
Mean Inhib (%) (kinases [23]): 4.6%
Mean Inhib (%) (kinases [24]): 6.5%
Mean Inhib (%) (kinases [25]): 7.0%
Mean Inhib (%) (kinases [26]): 6.3%
Mean Inhib (%) (kinases [27]): 14.4%
Mean Inhib (%) (kinases [28]): −2.5%
Mean Inhib (%) (kinases [29]): −2.1%

Cc1cc(Oc2ccnc(Nc3ccc(S(N)(=O)=O)cc3)c2)c(-c2ccccn2)nc1C [compound 65]
Mean Inhib (%) (kinases [1]): 8.4%
Mean Inhib (%) (kinases [2]): 10.2%
Mean Inhib (%) (kinases [3]): 31.0%
Mean Inhib (%) (kinases [4]; [30]): 0.0%
Mean Inhib (%) (kinases [4]; [31]): 3.9%
Mean Inhib (%) (kinases [5]): 4.9%
Mean Inhib (%) (kinases [6]): 1.5%
Mean Inhib (%) (kinases [7]): 1.8%
Mean Inhib (%) (kinases [8]): 77.2%
Mean Inhib (%) (kinases [9]): 5.1%
Mean Inhib (%) (kinases [10]): 15.7%
CDK4 Cyclin D1 *Mn* Adapta SP Mean Mean Inhib (%) (kinases [11]; CDK4 Cyclin D1, Mn): 2.5%
CDK4 Cyclin D3 *Mn* Adapta SP Mean Mean Inhib (%) (kinases [11]; CDK4 Cyclin D3, Mn): −3.9%
Mean Inhib (%) (kinases [12]): 1.8%
Mean Inhib (%) (kinases [13]): −4.8%
Mean Inhib (%) (kinases [14]): 4.2%
Mean Inhib (%) (kinases [15]): 3.4%
Mean Inhib (%) (kinases [16]): 1.5%
Mean Inhib (%) (kinases [17]): −0.4%
Mean Inhib (%) (kinases [18]): 5.9%
Mean Inhib (%) (kinases [19]): 2.7%
Mean Inhib (%) (kinases [20]): 1.6%
Mean Inhib (%) (kinases [21]): 6.4%
Mean Inhib (%) (kinases [22]): 5.8%
Mean Inhib (%) (kinases [23]): 8.3%
Mean Inhib (%) (kinases [24]): 4.3%
Mean Inhib (%) (kinases [25]): 0.2%
Mean Inhib (%) (kinases [26]): 49.5%
Mean Inhib (%) (kinases [27]): 5.4%
Mean Inhib (%) (kinases [28]): −3.4%
Mean Inhib (%) (kinases [29]): 9.2%
